Source: US10155727B2, “Pyrazoles” (Janssen Pharmaceuticals, Inc., priority 2014, dated 2018)
Like-named read-outs stand apart in the source and are kept apart here.

Experiments:
rat NR1/NR2B receptor = rat NR1/NR2B receptor (Rattus norvegicus (Rat), UniProt P35439+Q00960); assay: NR2B binding assay: inhibition of specific [3H]-Ifenprodil binding to the rat NR1/NR2B receptor; conditions: for IC50 / inhibition at 1 µM: [3H]-Ifenprodil binding, rat brain membranes; for inhibition at 1 µM: 1 μM test compound, read-out: % INH @ 1 μM
Experimental: Biological Assays Inhibition of Specific Binding to the Rat NR1/NR2B Receptor
Male Wistar rats (180 to 200 g) were killed by suffocation in a CO2 chamber for two minutes. Whole brains without cerebellum were removed and dissected on ice, placed into closed vials and stored at −70° C.
Membrane fractions were prepared and tested using standard techniques. At the time of the assay, 1 g of the brains was placed into 25 ml of 50 mM Tris/10 mM EDTA buffer, pH 7.1, (25 vol. per g of original tissue) and homogenized for 30 sec at 20000 rpm with an Ultraturrax T25 (Jahnke & Kunkel, IKA-Labortechnik, Staufen, Germany).
The supernatant was discarded and the pellet was homogenized on ice for 30 sec at 20000 rpm with an Ultraturrax and again centrifuged at 48000 g for 30 minutes at 4° C. The resultant pellet was resuspended in 25 ml of 50 mM Tris/10 mM EDTA buffer, homogenized for 30 sec with an Ultraturrax, aliquoted, frozen at −70° C. and stored until use.
After thawing on the day of the assay, a 5 ml membrane aliquot was centrifuged at 48000 g for 30 min at 4° C. The pellet was resuspended in 5 ml of 5 mM Tris/1 mM EDTA buffer, pH 7.4, homogenized for 30 sec at 20000 rpm with an Ultraturrax and centrifuged at 48000 g for 30 min at 4° C. This was repeated twice. The final pellet was homogenized in 5 ml of 5 mM Tris/1 mM EDTA buffer at 4° C. with an Ultraturrax and used for the Ifenprodil-binding assay as described in the following.
Nonspecific binding was estimated in the presence of […] CP101.606. The samples were incubated for 60 min. at 4° C.
The incubation was terminated by filtration of the membrane preparations using Filtermat B (Pharmacia, Uppsala Sweden) and a Micro Cell Harvester (Skatron, Lier, Norway). The Filtermat B had been presoaked with 1% polyethylene imine and carefully washed with 50 mM Tris/HCl-buffer pH 7.7 after the filtration to separate free and bound radioactivity.
The optimal amount of membrane preparation in the assay was determined and optimized for each membrane preparation separately before the test.
For pipetting of the incubation mixture the robot Biomek2000 (Fa. Beckman) was used.
For determination of IC50 values the Hill-plot, 2-parameter-model was used.

hERG receptor = hERG receptor (Homo sapiens (Human), UniProt Q12809); assay: HERGBD: inhibition of specific [3H]-Dofetilide binding to the hERG receptor
Experimental: Inhibition of Specific Binding to the hERG—Receptor (HERGBD)
A HEK cell line with stable transfected human ERG receptor was used for the assay. The cells were grown adherently and maintained in DULBECCOS' MEM medium with 10% FBS, 1% non-essential amino acids, 1% Penicillin/Streptomycin and 400 μg/ml G418 (Calbiochem).
For binding assays and membrane preparations the cell culture medium was removed, cells were washed with PBS. Crude membranes for radioligand binding experiments were prepared by scraping the cells off the dishes in ice cold 20 mM HEPES/0.1 mM KCl/pH 7.2. The cell suspension was homogenized on ice (Ultra turrax, 3×20 sec.) and the homogenate was spun for 10 min (1° C., 1000 g, OPTIMA, SW28, 2800 U/min). The supernatant was than centrifuged for 40 min at 100000 g (1° C., OPTIMA, SW28, 23000 U/min). The membrane pellet was re-suspended in 20 mM HEPES/0.1 mM KCl pH 7.2, frozen and stored at −80° C.
After thawing on the day of the assay, the membrane suspension was diluted further with 20 mM HEPES/0.1 mM KCl/pH 7.2.
The incubation mixture of 200 μl contained 1.5 nmol/l 3H-Dofetilide, optimized amount of membrane preparation, 20 mM HEPES/0.1 mM KCl/(pH 7.2) and inhibitor in 1% DMSO. Nonspecific binding was estimated in the presence of […] Dofetilide. The samples were incubated for 90 min. at RT.
Binding was terminated by filtration of the incubated membrane preparations using Filtermat B (Pharmacia, Uppsala Sweden) and a Micro Cell Harvester (Skatron, Lier, Norway). The Filtermat B had been presoaked with 1% polyethylen imine and carefully washed with 0.05 M Tris/HCl-buffer pH=7.7 after the filtration to separate free and bound radioactivity. The filters were counted in a scintillation counter (Betaplate 1205, Berthold, Wildbad, Germany) in order to determine the specific binding of [^3H]-Dofetilide.
The optimal amount of membrane preparation in the assay was determined and optimized for each membrane preparation separately in front of using the membranes in compound testing.
For pipetting of the incubation mixture we routinely use the robot Biomek2000 (Fa. Beckman).

[1] = [3H]-Dofetilide binding, membranes of HEK cells with human ERG receptor, read-out: IC50

Sequence of hERG receptor (Q12809 whole entry): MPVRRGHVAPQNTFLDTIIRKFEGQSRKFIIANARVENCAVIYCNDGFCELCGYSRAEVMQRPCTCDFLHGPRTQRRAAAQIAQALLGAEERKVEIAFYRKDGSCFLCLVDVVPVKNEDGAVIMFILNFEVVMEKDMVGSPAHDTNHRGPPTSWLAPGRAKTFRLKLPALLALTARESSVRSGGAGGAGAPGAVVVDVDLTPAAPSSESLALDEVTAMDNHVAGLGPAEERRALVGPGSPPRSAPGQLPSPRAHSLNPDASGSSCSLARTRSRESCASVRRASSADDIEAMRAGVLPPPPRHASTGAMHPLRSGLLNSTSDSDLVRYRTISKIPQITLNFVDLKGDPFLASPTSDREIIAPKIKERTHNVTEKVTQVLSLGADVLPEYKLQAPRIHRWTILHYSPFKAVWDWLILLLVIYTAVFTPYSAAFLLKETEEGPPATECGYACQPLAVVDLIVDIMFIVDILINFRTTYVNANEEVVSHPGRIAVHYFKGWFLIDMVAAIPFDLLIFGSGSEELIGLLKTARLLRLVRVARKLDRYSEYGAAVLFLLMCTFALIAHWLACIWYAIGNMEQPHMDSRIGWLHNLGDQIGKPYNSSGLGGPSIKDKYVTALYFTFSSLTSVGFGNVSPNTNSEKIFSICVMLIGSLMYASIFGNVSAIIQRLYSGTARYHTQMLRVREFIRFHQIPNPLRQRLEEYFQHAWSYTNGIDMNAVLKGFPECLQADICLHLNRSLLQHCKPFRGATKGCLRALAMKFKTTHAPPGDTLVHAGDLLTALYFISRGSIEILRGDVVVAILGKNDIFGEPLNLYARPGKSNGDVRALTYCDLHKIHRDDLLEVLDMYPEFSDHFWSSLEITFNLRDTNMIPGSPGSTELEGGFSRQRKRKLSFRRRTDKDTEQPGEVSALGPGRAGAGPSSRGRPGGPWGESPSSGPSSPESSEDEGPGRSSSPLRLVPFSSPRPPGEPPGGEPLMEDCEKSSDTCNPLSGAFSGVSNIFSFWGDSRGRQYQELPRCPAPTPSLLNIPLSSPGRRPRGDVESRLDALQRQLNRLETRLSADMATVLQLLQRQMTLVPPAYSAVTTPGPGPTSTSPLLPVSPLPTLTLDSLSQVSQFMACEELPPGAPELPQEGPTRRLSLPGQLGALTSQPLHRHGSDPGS
Sequence of rat NR1/NR2B receptor (Q00960 27-1482, other chains not shown): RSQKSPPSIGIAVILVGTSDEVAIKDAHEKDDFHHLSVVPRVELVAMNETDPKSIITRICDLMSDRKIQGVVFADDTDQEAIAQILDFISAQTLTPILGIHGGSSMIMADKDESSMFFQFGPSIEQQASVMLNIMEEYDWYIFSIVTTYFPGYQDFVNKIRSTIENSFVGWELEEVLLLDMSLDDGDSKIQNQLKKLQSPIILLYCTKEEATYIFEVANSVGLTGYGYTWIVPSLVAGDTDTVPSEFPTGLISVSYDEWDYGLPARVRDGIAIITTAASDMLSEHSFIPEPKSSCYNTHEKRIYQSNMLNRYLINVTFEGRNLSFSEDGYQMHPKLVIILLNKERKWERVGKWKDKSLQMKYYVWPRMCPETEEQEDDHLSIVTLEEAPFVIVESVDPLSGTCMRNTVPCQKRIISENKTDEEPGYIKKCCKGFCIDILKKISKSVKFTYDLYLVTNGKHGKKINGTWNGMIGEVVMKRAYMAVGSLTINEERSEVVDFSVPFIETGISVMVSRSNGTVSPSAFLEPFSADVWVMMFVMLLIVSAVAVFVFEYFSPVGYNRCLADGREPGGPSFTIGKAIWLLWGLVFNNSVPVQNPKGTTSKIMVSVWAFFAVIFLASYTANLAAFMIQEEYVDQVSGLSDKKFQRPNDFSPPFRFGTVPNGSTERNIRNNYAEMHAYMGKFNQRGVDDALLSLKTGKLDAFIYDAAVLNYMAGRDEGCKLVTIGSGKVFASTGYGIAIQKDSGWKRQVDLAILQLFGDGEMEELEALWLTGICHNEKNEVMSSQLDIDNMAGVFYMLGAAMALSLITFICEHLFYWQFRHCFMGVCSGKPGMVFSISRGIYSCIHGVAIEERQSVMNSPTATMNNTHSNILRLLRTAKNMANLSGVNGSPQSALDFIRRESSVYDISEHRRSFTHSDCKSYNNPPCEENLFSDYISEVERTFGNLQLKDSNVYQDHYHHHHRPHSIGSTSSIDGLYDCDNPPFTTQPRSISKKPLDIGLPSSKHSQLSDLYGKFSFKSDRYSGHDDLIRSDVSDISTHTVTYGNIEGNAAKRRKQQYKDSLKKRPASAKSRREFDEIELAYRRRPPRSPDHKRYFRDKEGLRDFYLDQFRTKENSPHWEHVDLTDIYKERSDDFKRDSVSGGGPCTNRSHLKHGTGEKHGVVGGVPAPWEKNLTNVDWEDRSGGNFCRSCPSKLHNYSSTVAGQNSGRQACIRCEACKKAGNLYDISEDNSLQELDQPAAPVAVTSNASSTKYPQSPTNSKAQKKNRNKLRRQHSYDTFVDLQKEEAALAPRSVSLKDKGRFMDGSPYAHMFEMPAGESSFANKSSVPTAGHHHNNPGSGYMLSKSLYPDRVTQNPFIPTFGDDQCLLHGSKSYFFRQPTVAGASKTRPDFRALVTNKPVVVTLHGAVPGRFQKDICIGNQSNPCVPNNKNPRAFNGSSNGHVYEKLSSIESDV

Row | SMILES | IC50 (rat NR1/NR2B receptor) | IC50 (hERG receptor) | IC50 (hERG receptor; [1]) | inhibition at 1 µM (rat NR1/NR2B receptor) | inhibition at 10 µM (rat NR1/NR2B receptor; read-out: % INH @ 10 μM)
1 | Cc1n[nH]c(C)c1Cn1cc(-c2ccc(F)c(C(F)F)c2)cn1 [Example 89, 4-[[4-(3-difluoromethyl-4-fluoro-phenyl)pyrazol-1-yl]methyl]-3,5-dimethyl-1H-pyrazole] | 0.736 µM | 88.2 µM |  |  | 
2 | CCn1cncc1Cn1cc(-c2ccc(Cl)c(C(F)F)c2)cn1 [Example 95, 4-(4-chloro-3-(difluoromethyl)phenyl)-1-((1-ethyl-1H-imidazol-5-yl)methyl)-1H-pyrazole] | 0.0635 µM |  | 6.36 µM |  | 
3 | Fc1ccc(-c2cnn(CCc3cn[nH]c3)c2)cc1C(F)F [Example 37, 4-[3-(Difluoromethyl)-4-fluoro-phenyl]-1-[2-(1H-pyrazol-4-yl)ethyl]pyrazole] | 2.06 µM | 38.1 µM |  |  | 
4 | Fc1cc(-c2cnn(Cc3cc[nH]n3)c2)cc(C(F)F)c1 [Example 47, 4-[3-(difluoromethyl)-5-fluoro-phenyl]-1-(1H-pyrazol-3-ylmethyl) pyrazole Succinate] | 0.203 µM | > 100 µM |  |  | 
5 | Cc1cc(Cn2cc(-c3ccc(Cl)c(OC(F)F)c3)cn2)n(C)n1 [Example 3, 5-[[4-[4-Chloro-3-(difluoromethoxy)phenyl]pyrazol-1-yl]methyl]-1,3-dimethyl-pyrazole] | 0.146 µM |  | 23.3 µM |  | 
6 | Cc1cc(Cn2cc(-c3cccc(C(F)(F)F)c3)cn2)n(C)n1 [Example 48, 1,3-dimethyl-5-[[4-[3-(trifluoromethyl)phenyl]pyrazol-1-yl]methyl]pyrazole] | 1.97 µM | 37.4 µM |  |  | 
7 | CCn1cncc1Cn1cc(-c2ccc(Cl)cc2)cn1 [Example 98, 4-(4-chlorophenyl)-1-((1-ethyl-1H-imidazol-5-yl)methyl)-1H-pyrazole] | 1.06 µM | 3.55 µM |  |  | 
8 | Cc1cc(Cn2cc(-c3ccc(F)c(Cl)c3)cn2)n(C)n1 [Example 62, 5-[[4-(3-chloro-4-fluoro-phenyl)pyrazol-1-yl]methyl]-1,3-dimethyl-pyrazole] | 0.857 µM | 41.9 µM |  |  | 
9 | Cn1cc(Cn2cc(-c3ccc(F)c(C(F)F)c3)cn2)cn1 [Example 33, 4-[3-(Difluoromethyl)-4-fluoro-phenyl]-1-[(1-methylpyrazol-4-yl)methyl]pyrazole] | 0.371 µM | > 100 µM |  |  | 
10 | Cc1cc(Cn2cc(-c3ccc(Cl)c(Cl)c3)cn2)n(C)n1 [Example 64, 5-[[4-(3,4-dichlorophenyl)pyrazol-1-yl]methyl]-1,3-dimethyl-pyrazole] | 1.1 µM | 14.4 µM |  |  | 
11 | Cn1ccc(Cn2cc(-c3ccc(Cl)c(Cl)c3)cn2)n1 [Example 63, 3-[[4-(3,4-dichlorophenyl)pyrazol-1-yl]methyl]-1-methyl-pyrazole] | 0.612 µM |  | 10.8 µM |  | 
12 | Cn1ccc(Cn2cc(-c3ccccn3)cn2)n1 [Example 104, 2-(1-((1-methyl-1H-pyrazol-3-yl)methyl)-1H-pyrazol-4-yl)pyridine Succinate] |  |  | > 100 µM | 20.9% | -0.6%
13 | Cc1n[nH]c(C)c1CCn1cc(-c2ccc(F)c(C(F)F)c2)cn1 [Example 36, 4-[2-[4-[3-(Difluoromethyl)-4-fluoro-phenyl]pyrazol-1-yl]ethyl]-3,5-dimethyl-1H-pyrazole] | 0.424 µM | 29.6 µM |  |  | 
14 | c1cc(-c2cnn(Cc3cc[nH]n3)c2)cc(C2CC2)c1 [Example 69, 4-(3-cyclopropylphenyl)-1-(1H-pyrazol-3-ylmethyl)pyrazole Succinate] | 0.831 µM | > 100 µM |  |  | 
15 | Cn1nccc1Cn1cc(-c2ccc(Cl)c(OC(F)F)c2)cn1 [Example 5, 4-[4-Chloro-3-(difluoromethoxy)phenyl]-1-[(2-methylpyrazol-3-yl)methyl]pyrazole] | 0.148 µM | 64.3 µM |  |  | 
16 | Cc1n[nH]c(C)c1Cn1cc(-c2ccc(F)c(C(C)(F)F)c2)cn1 [Example 90] | 0.422 µM | 84 µM |  |  | 
17 | Clc1ccc(-c2cnn(Cc3cn4ccccc4n3)c2)cc1 [Example 102, 2-((4-(4-chlorophenyl)-1H-pyrazol-1-yl)methyl)imidazo[1,2-a]pyridine] |  | 10.2 µM |  | 23.3% | 
18 | Cn1ccc(Cn2cc(-c3ccc(Cl)c(C(F)F)c3)cn2)n1 [Example 24, 3-[[4-[4-chloro-3-(difluoromethyl)phenyl]pyrazol-1-yl]methyl]-1-methyl-pyrazole] | 0.41 µM |  | 4.89 µM |  | 
19 | Cc1cc(Cn2cc(-c3ccc(Cl)c(F)c3)cn2)n(C)n1 [Example 60, 5-[[4-(4-chloro-3-fluoro-phenyl)pyrazol-1-yl]methyl]-1,3-dimethyl-pyrazole] | 2.17 µM |  | 31.6 µM |  | 
20 | Cn1ccc(Cn2cc(-c3cccc(OC(F)(F)F)c3)cn2)n1 [Example 23, 1-Methyl-3-[[4-[3-(trifluoromethoxy)phenyl]pyrazol-1-yl]methyl]pyrazole Succinate] | 1.59 µM | 9.24 µM |  |  | 
21 | Clc1ccc(-c2cnn(Cc3cc[nH]n3)c2)cc1 [Example 77, 4-(4-Chlorophenyl)-1-(1H-pyrazol-3-ylmethyl)pyrazole] | 1.04 µM | 16.9 µM |  |  | 
22 | Cc1cc(-c2cnn(Cc3ccn(C)n3)c2)ccc1F [Example 55, 3-[[4-(4-fluoro-3-methyl-phenyl)pyrazol-1-yl]methyl]-1-methyl-pyrazole Succinate] | 0.871 µM | 21.1 µM |  |  | 
23 | Cn1cc(Cn2cc(-c3ccc(F)c(OC(F)F)c3)cn2)cn1 [Example 19, 4-[3-(difluoromethoxy)-4-fluoro-phenyl]-1-[(1-methylpyrazol-4-yl)methyl]pyrazole] | 0.202 µM | > 100 µM |  |  | 
24 | Cn1nccc1-n1cc(-c2ccc(F)c(Cl)c2)cn1 [Example 101, 4-(3-chloro-4-fluorophenyl)-2′-methyl-2′H-1,3′-bipyrazole] | 5.6 µM | 118 µM |  |  | 
25 | Cn1cc(Cn2cc(-c3ccc(F)c(C(C)(F)F)c3)cn2)cn1 [Example 45, 4-[3-(1,1-difluoroethyl)-4-fluoro-phenyl]-1-[(1-methylpyrazol-4-yl)methyl]pyrazole Succinate] | 0.261 µM | 67.8 µM |  |  | 
26 | CCCc1cc(Cn2cc(-c3ccc(Cl)c(OC(F)F)c3)cn2)n[nH]1 [Example 15, 3-[[4-[4-Chloro-3-(difluoromethoxy)phenyl]pyrazol-1-yl]methyl]-5-propyl-1H-pyrazole] | 0.163 µM |  | 7.93 µM |  | 
27 | Cc1n[nH]c(C)c1CCn1cc(-c2ccc(Cl)cc2)cn1 [Example 73, 4-[2-[4-(4-chlorophenyl)pyrazol-1-yl]ethyl]-3,5-dimethyl-1H-pyrazole] | 1.16 µM | 98 µM |  |  | 
28 | Cn1nccc1Cn1cc(-c2ccc(Cl)cc2)cn1 [Example 76, 4-(4-Chlorophenyl)-1-[(2-methylpyrazol-3-yl)methyl]pyrazole] | 7.35 µM | 120 µM |  |  | 
